Reference: patent publication US9192166B2, “Compositions comprising a streptomyces-based biological control agent and an insecticide” (BAYER […], priority 2013, dated 2015)

What was measured:
Type in all cases: in vivo
[1] = tested on: two spotted spidermite (Tetranychus urticae); assay: Tetranychus urticae spray test, OP-resistant
Text: (§1) Emulsifier: alkylaryl polyglycol ether

[2] = tested on: green peach aphid (Myzus persicae); assay: Myzus persicae spray test (Chinese cabbage leaf disks)
Text: as §1
100% means all aphids have been killed; 0% means none of the aphids have been killed.

[3] = tested on: mustard beetle larvae (Phaedon cochleariae); assay: Phaedon cochleariae spray test
Text: The fermentation product is referred to in the examples below as NRRL B-50550.
Solvent: 78.0 parts by weight of acetone

[4] = tested on: fall armyworm larvae (Spodoptera frugiperda); assay: Spodoptera frugiperda spray test
Text: as §1

[5] = tested on: green peach aphid (Myzus persicae); assay: Myzus persicae spray test (pepper leaves); settings: 0.5 ppm

CNC(=O)c1cc(C#N)cc(C)c1NC(=O)c1cc(Br)nn1-c1ncccc1Cl [Cyantraniliprole]
Efficacy in % after 6d ([1]; 80 ppm): 0%
Efficacy in % after 6d ([2]; 0.64 ppm): 0%
Efficacy in % after 6d ([2]; 3.2 ppm): 0%
Efficacy in % after 1d ([2]; 16 ppm): 0%
Efficacy in % after 6d ([3]; 0.64 ppm): 0%

CS/C(C)=N\OC(=O)N(C)SN(C)C(=O)O/N=C(\C)SC [Thiodicarb]
Efficacy in % after 2d ([4]; 40 ppm): 0%

Cc1cc(C(F)(C(F)(F)F)C(F)(F)F)ccc1NC(=O)c1cccc(I)c1C(=O)NC(C)(C)CS(C)(=O)=O [Flubendiamide]
Efficacy in % after 2d ([4]; 3.2 ppm): 33%

Cc1cc(F)c(-n2nc(C(F)(F)F)nc2N)cc1[S+]([O-])CC(F)(F)F (stereo not shown) [1-{2-fluoro-4-methyl-5-[(2,2,2-trifluorethyl)sulfinyl]phenyl}-3-(trifluoromethyl)-1H-1,2,4-triazol-5-amine]
Efficacy in % after 6d ([1]; 3.2 ppm): 0%

O=[N+]([O-])NC1=NCCN1Cc1ccc(Cl)nc1 [Imidacloprid]
Efficacy in % after 6d ([1]; 2 ppm): 0%

CNC(=O)Oc1cc(C)c(SC)c(C)c1 [Methiocarb]
Efficacy in % after 6d ([2]; 2000 ppm): 0%

CNC(=O)c1cc(C#N)cc(C)c1NC(=O)c1cc(Cn2nnc(C(F)(F)F)n2)nn1-c1ncccc1Cl [1-(3-chloropyridin-2-yl)-N-[4-cyano-2-methyl-6-(methylcarbamoyl)phenyl]-3-{[5-(trifluoromethyl)-2H-tetrazol-2-yl]methyl}-1H-pyrazole-5-carboxamide]
Efficacy in % after 6d ([4]; 0.64 ppm): 33%
Efficacy in % after 6d ([3]; 0.128 ppm): 0%
Efficacy in % after 2d ([3]; 0.64 ppm): 50%

N#Cc1nn(-c2c(Cl)cc(C(F)(F)F)cc2Cl)c(N)c1[S+]([O-])C(F)(F)F (stereo not shown) [Fipronil]
Efficacy in % after 6d ([4]; 16 ppm): 0%

CNC(=O)c1cc(Cl)cc(C)c1NC(=O)c1cc(Br)nn1-c1ncccc1Cl [Chlorantraniliprole]
Efficacy in % after 6d ([1]; 16 ppm): 0%
Efficacy in % after 1d ([2]; 3.2 ppm): 0%

N#C/N=C1\SCCN1Cc1ccc(Cl)nc1 [Thiacloprid]
Efficacy in % after 2d [5]: 40%
Efficacy in % after 3d [5]: 20%
Efficacy in % after 7d [5]: 10%

Spinosad
Efficacy in % after 6d ([4]; 0.64 ppm): 0%
Efficacy in % after 2d ([3]; 80 ppm): 50%

CC1(C)C(C=C(Cl)Cl)C1C(=O)OC(C#N)c1ccc(F)c(Oc2ccccc2)c1 (stereo not drawn) [β-Cyfluthrin, beta-Cyfluthrin]
Efficacy in % after 6d ([2]; 1.6 ppm): 0%
Efficacy in % after 6d ([4]; 1.6 ppm): 0%
Efficacy in % after 6d ([3]; 1.6 ppm): 0%

Cc1c(F)c(F)c(COC(=O)[C@@H]2[C@H](/C=C(\Cl)C(F)(F)F)C2(C)C)c(F)c1F (racemic) [Tefluthrin]
Efficacy in % after 2d ([3]; 40 ppm): 0%

CC(c1ccc(C(F)(F)F)nc1)S(C)(=O)=NC#N (stereo not shown) [Sulfoxaflor]
Efficacy in % after 1d ([2]; 0.64 ppm): 0%

Spinetoram
Efficacy in % after 2d ([4]; 0.64 ppm): 0%

CN/C(=N\[N+](=O)[O-])NCc1cnc(Cl)s1 [Clothianidin]
Efficacy in % after 6d ([2]; 0.32 ppm): 0%
